Molecules are shown by their SMILES.

By EC50 is commonly meant the concentration at which the effect is half-maximal.

In the assay the test system is Symmetric di-Methyl Arginine in Z-138 cells. As to the kind of experiment: Z-138 Methylation Assay (In Cell Western for symmetric di-methyl arginine). Type of assay: cell-based. The settings on record: Homo sapiens, 96 hours incubation, symmetric di-methyl arginine normalised to DNA content, read-out: ICW EC50. In a few lines:
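Z-138 cells were treated with compound for 96 h at 37 °C, then fixed on poly-D-lysine plates. Symmetric di-methyl arginine was detected by In-Cell Western (800 nm) with DRAQ5 DNA normalisation (700 nm). Percent inhibition used DMSO and 3 μM reference-compound controls; IC50 curves came from triplicate wells.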
With `O=C(COc1cccc2cccnc12)NCC(O)CN1CCc2ccsc2C1` (stereo not drawn) [Compound 1-5, N-(2-hydroxy-3-{4H,5H,6H,7H-thieno[2,3-c]pyridin-6-yl}propyl)-2-(quinolin-8-yloxy)acetamide], the EC50 lay within 0.101 to 1 µM.
As to `CC(=O)N1CC(Nc2cc(C(=O)NC[C@H](O)CN3CCc4c(cnn4C)C3)ncn2)C1` [Compound 3-29], the EC50 was above 1 µM.
The value for `CC(=O)N1CCC(Nc2cc(C(=O)NC[C@H](O)CN3CCc4ncn(C)c4C3)ncn2)CC1` [Compound 3-30, (S)-6-((1-acetylpiperidin-4-yl)amino)-N-(2-hydroxy-3-(3-methyl-6,7-dihydro-3H-imidazo[4,5-c]pyridin-5(4H)-yl)propyl)pyrimidine-4-carboxamide] was above 1 µM.

Values taken from patent US20170210751A1, “PRMT5 INHIBITORS AND USES THEREOF” (Epizyme, Inc., priority 2014, published 2017).
